Test results from patent US10807978B2, “Process for preparation of palbociclib” (DR. REDDY'S LABORATORIES LIMITED, priority 2016, dated 2020).

Test: Surface Area (BET method)
Type: physicochemical
Conditions: isolated palbociclib free base solid

Row | SMILES | Surface Area (BET method) [m^2/g]
1 | CC(=O)c1c(C)c2cnc(Nc3ccc(N4CCNCC4)cn3)nc2n(C2CCCC2)c1=O [Example 9, 6-acetyl-8-cyclopentyl-5-methyl-2-{[5-(piperazin-1-yl)pyridin-2yl]amino}-pyrido[2,3-d]pyrimidin-7(8H)-one] | 3.61
2 | CC(=O)c1c(C)c2cnc(Nc3ccc(N4CCNCC4)cn3)nc2n(C2CCCC2)c1=O [Example 11, 6-acetyl-8-cyclopentyl-5-methyl-2-{[5-(piperazin-1-yl)pyridin-2yl]amino}-pyrido[2,3-d]pyrimidin-7(8H)-one] | 9.38
